Experimental data taken from article PMC6550523, “De Novo Emergence of Peptides That Confer Antibiotic Resistance” (mBio, 2019).
Where two headings read alike, the source gives them in different places.

What was measured:
[1] = system: bovine cytochrome c oxidase (CytcO) reconstituted into proteoliposomes; assay type: biochemical
Description: When ionophores (valinomycin, a K^+ ionophore, and/or FCCP, a protonophore similar to CCCP) are added, this gradient is partly or fully dissipated, and the so-called uncoupled rate is reached. […] Thus, we determined the RCRs after adding the Arp-1 and Arp1-L11K peptides, and as positive controls we added valinomycin and FCCP in addition to the peptides (Fig. 4B and Fig. S4C).
(A) CytcO reduces O2 to H2O, using electrons from reduced cytochrome (cyt.) c and protons from inside the liposomes. In addition, protons are pumped and a proton electrochemical gradient (positive outside) across the membrane is established. Valinomycin, a K^+ ionophore, can dissipate the charge component and FCCP, a protonophore, both components of this gradient. (B) A typical oxygen consumption experiment; the baseline with only ascorbate, TMPD, and cyt. c was first measured. Proteoliposomes then were added, initiating oxygen consumption by CytcO and build-up of a membrane potential. The coupled rate is the slope after liposome addition subtracting the baseline. Peptides (Arp1 or L11K), valinomycin, and FCCP were added, in this order, and the rates measured. RCRs were determined by dividing the different rates by the initial coupled rate. […]
CytcO activity was measured using a Clark-type oxygen electrode (Hansatech) at 25°C. […] Oxygen consumption rates and RCRs were measured essentially as described in reference [43].

[2] = system: Escherichia coli K-12 strain BW25113; assay: MIC determination (Etest) in strains expressing the peptides; assay type: cell-based; details: for Increased aminoglycoside resistance on overexpression of endogenous E. coli peptides: TisB from a pBAD promoter, arabinose 0.0125 to 0.2%, at viable expression levels
Description: Most strains used in this study were derived from Escherichia coli K-12 BW25113 (designated E. coli throughout the text) and are listed in Table S1 in the supplemental material. If not indicated otherwise, Muller Hinton broth (MHB) (Becton, Dickinson) was used for growth in liquid cultures and Muller Hinton agar (MHA; MHB supplemented with 15 g/liter agar) for growth on plates. To maintain the plasmid pRD2 or pBAD18, the growth media were supplemented with 100 mg/liter ampicillin or 15 mg/liter chloramphenicol, respectively. Induction of expression was performed in the presence of 1 mM IPTG (pRD2) or 0.2% arabinose (pBAD18). For counterselection of sacB, no-salt lysogeny agar plates (10 g/liter tryptone, 5 g/liter yeast extract, 15 g/liter agar, and 50 g/liter sucrose) were used. Recovery after transformation was done in SOC medium (20 g/liter tryptone, 5 g/liter yeast extract, 0.5 g/liter NaCl, 10 mM MgCl2, […], and 4 g/liter glucose). For washing and dilution of cells, phosphate-buffered saline (PBS; 8 g/liter NaCl, 0.2 g/liter KCl, 1.44 g/liter Na2HPO4, and 0.24 g/liter KH2PO4) was used.
MICs were determined using Etest strips (bioMérieux). Overnight cultures of the strains of interest were diluted 1:20 in PBS and spread on an MHA plate containing 100 mg/liter ampicillin and 1 mM IPTG where necessary with a cotton swab. Etest strips were applied in the middle of the plates and incubated at 37°C overnight. MIC values were scored after 20 h of incubation. Colistin MICs were determined using microdilution. For this, bacteria were grown on MHA with 100 mg/liter ampicillin, and 1 to 2 colonies were dissolved in 1 ml PBS to approximately 0.5 McFarland. The cell suspension was diluted 1:100 in Muller Hinton 2 broth (cation adjusted), and 50 μl was mixed with 50 μl Muller Hinton 2 broth containing 0.4% arabinose, 30 mg/liter chloramphenicol, and a 2-fold dilution series of colistin. The assay was performed in round-bottomed 96-well plates at 37°C overnight in a stationary position. The MIC was determined as the concentration where no growth could be observed and is based on a minimum of two biological replicates. If the determined values of the replicates were not identical, a third replicate was performed.
The site saturation mutagenesis was performed with GeneArt (ThermoFisher) based on the sequence of Arp1, where each position in the wild-type sequence was replaced by the amino acids lysine (K), glutamic acid (E), proline (P), tryptophan (W), and serine (S). All variants were subcloned into our modified expression vector, pBAD18-RND, using the AgeI/HindIII cloning sites, transformed into E. coli, and delivered as a total pool glycerol stock. […] The plasmid variants were determined by Sanger sequencing (Eurofins, Germany). […]

E. coli = assay: Toxicity of peptides when expressed; assay type: cell-based, Escherichia coli; details: expressed in E. coli from pBAD vector
[3] = system: E. coli membrane potential; assay: Membrane potential assay with DiBAC4(3); assay type: cell-based, Escherichia coli; details: 100 μM CCCP, 30 min, room temperature; positive control
Description: Bacteria were grown overnight in MHB supplemented with 15 mg/liter chloramphenicol at 37°C. The following day all cultures were diluted 1:100 in MHB supplemented with 15 mg/liter chloramphenicol and grown to an OD600 of approximately 0.3 (time point 0). At the target OD600, IPTG was added to each culture to a final concentration of 1 mM, and cells were incubated for another 60 min to allow expression of proteins (time point 1). At both time points, approximately 10^6 cells were transferred to 1 ml PBS with 10 mg/liter DiBAC4(3) (D8189; Sigma-Aldrich) with or without 100 μM carbonyl cyanide 3-chlorophenylhydrazone (CCCP; Sigma-Aldrich) and incubated for 30 min at room temperature in the dark. Fluorescence was measured with a MACSQuant VYB (Miltenyi Biotec) using the GFP/FITC (green fluorescent protein/fluorescein isothiocyanate) channel and a threshold of 15,000 gated cells. The raw data were analyzed and visualized with FlowJo (BD Bioscience).

For `N#CC(C#N)=NNc1ccc(OC(F)(F)F)cc1` [FCCP], the “Effect of ionophore added in addition to Arp1 peptide” value [1] was “fully collapsed the gradient”.
With `CC(C)[C@@H]1NC(=O)[C@H](C)OC(=O)[C@@H](C(C)C)NC(=O)[C@@H](C(C)C)OC(=O)[C@H](C(C)C)NC(=O)[C@H](C)OC(=O)[C@@H](C(C)C)NC(=O)[C@@H](C(C)C)OC(=O)[C@H](C(C)C)NC(=O)[C@H](C)OC(=O)[C@@H](C(C)C)NC(=O)[C@@H](C(C)C)OC1=O` [Valinomycin, valinomycin] the “Effect of ionophore added in addition to Arp1 peptide” value ([1]; valinomycin 6 μM, then FCCP 21 μM, positive controls) was “further rate increase”.
In the case of `NC[C@H]1O[C@H](O[C@H]2[C@H](O)[C@@H](O[C@H]3O[C@H](CO)[C@@H](O)[C@H](N)[C@H]3O)[C@H](N)C[C@@H]2N)[C@H](O)[C@@H](O)[C@@H]1O` [kanamycin], the “Kanamycin MIC of the empty vector control strain” value ([2]; E. coli BW25113 with empty vector, Etest, 37°C, 20 h) is reported as 0.75 µg/mL.
In the case of “IbsC: endogenous E. coli toxin peptide similar to Arp1-3 in size and hydrophobicity (MMRLVIILIVLLLISFSAY; UniProt C1P615 1-19, looked up)”, the “Increased aminoglycoside resistance on overexpression of endogenous E. coli peptides” value (“Increased aminoglycoside resistance” below) [2] is reported as “no increased resistance”.
For “LdrD: endogenous E. coli toxin peptide similar to Arp1-3 in size and hydrophobicity (MTFAELGMAFWHDLAAPVIAGILASMIVNWLNKRK; UniProt Q6BF25 1-35, looked up)”, the “Increased aminoglycoside resistance” value [2] was “no increased resistance”.
In the case of “TisB: endogenous E. coli K-12 29-mer toxin of a toxin-antitoxin system (MNLVDIAILILKLIVAALQLLDAVLKYLK; UniProt A5A627 1-29, looked up)”, the “Increased aminoglycoside resistance” value [2] is reported as “no increased resistance” and the Toxicity when expressed (E. coli) is reported as “lethal”.
“carbonyl cyanide m-chlorophenyl hydrazine [CCCP]” was tested, and the “Membrane potential, DiBAC4(3) fluorescence” value [3] was “clear shift to higher fluorescence”.
